Reference: patent publication US6653321B1, “Naphthylsulfonic acids and related compounds as glucose uptake agonists” (Telik, Inc., priority 1999, dated 2003)

Target: T1, β-kinase domain of the human insulin receptor (CKD) (Homo sapiens, UniProt P06213)
T1 construct: The complete β-kinase domain of the human insulin receptor (CKD); made in house
Experiment: 32P-Cytoplasmic Kinase Domain (CKD) autophosphorylation assay
Format: biochemical
Details: 32P incorporated into CKD band, percentage of the vehicle (DMSO) level; 10 minutes at room temperature; compound concentration not given
Experimental: The complete β-kinase domain of the human insulin receptor (CKD) was expressed in, and purified from, baculovirus. CKD (4.0 μg/mL), in a solution of 50 mM Tris.HCl, 2 mM MnCl2, 10 mM MgCl2 (50 μl final volume), was combined with […] ATP, and 5 μCi ^32P-ATP (3000 Ci/mmol.). A test compound, or the vehicle (DMSO), was added to a final DMSO concentration of 1%. The mixture was incubated for 10 minutes at room temperature. The reaction was terminated by the addition of 10 μl of 200 mM EDTA. A 30 μl volume was removed, mixed with 5 μl of 6×Laemmeli sodium dodecyl sulfate (SDS) treatment buffer, and heated to 94° C. for 5 minutes. A 20 μl aliquot was then run on an SDS-PAGE gel. The radioactivity incorporated into the CKD band is quantified by phosphorimaging of the gel, or scintillation counting of the excised bands.
The potency of a compound for increasing phosphorylation is expressed as a percentage of the vehicle level.

T1 sequence (P06213 980-1382 limits assumed): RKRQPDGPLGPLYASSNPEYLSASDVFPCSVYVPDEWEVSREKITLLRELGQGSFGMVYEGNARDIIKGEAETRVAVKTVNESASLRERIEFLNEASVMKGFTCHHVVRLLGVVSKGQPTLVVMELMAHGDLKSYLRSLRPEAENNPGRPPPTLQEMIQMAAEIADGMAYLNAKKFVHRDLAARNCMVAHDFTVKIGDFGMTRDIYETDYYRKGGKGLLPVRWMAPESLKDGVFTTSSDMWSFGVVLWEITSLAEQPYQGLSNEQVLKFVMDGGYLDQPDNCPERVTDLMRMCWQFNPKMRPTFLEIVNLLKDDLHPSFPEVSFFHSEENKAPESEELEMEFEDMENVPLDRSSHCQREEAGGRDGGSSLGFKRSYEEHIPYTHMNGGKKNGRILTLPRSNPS

SMILES | Activity (% Control)
Cc1ccc(NC(=O)CCC(=O)Nc2cc(C(=O)Nc3cccc4cc(S(=O)(=O)O)ccc34)cc(C(=O)Nc3cccc4cc(S(=O)(=O)O)ccc34)c2)cc1 [Compound 42, 5-[(3-{3-[N-(4-methylphenyl)carbamoyl]propanoylamino}-5-[N-(6-sulfonaphthyl)carbamoyl]phenyl)carbonylamino]naphthalene-2-sulfonic acid] | 116.7
O=C(Nc1cccc2cc(S(=O)(=O)O)ccc12)c1cc(NS(=O)(=O)c2cccc3ccccc23)cc(C(=O)Nc2cccc3cc(S(=O)(=O)O)ccc23)c1 [Compound 54, 5-({3-[(1-naphthylsulfonyl)amino]-5-[N-(6-sulfonaphthyl)carbamoyl]phenyl}carbonylamino)naphthalene-2-sulfonic acid] | 46.5
O=C(Nc1cc(C(=O)Nc2cccc3cc(S(=O)(=O)O)ccc23)cc(C(=O)Nc2cccc3cc(S(=O)(=O)O)ccc23)c1)c1cccnc1 [Compound 36, 5-({3-(3-pyridylcarbonylamino)-5-[N-(6-sulfonaphthyl)carbamoyl]phenyl}carbonylamino)naphthalene-2-sulfonic acid] | 123.2
O=C(CC(C(=O)O)c1ccccc1)Nc1cc(C(=O)Nc2cccc3cc(S(=O)(=O)O)ccc23)cc(C(=O)Nc2cccc3cc(S(=O)(=O)O)ccc23)c1 (stereo not drawn) [Compound 28, 3-(N-{3,5-bis[N-(6-sulfonaphthyl)carbamoyl]phenyl}carbamoyl)-2-phenylpropanoic acid] | 84.6
O=C(Nc1cccc2cc(S(=O)(=O)O)ccc12)c1cc(NS(=O)(=O)c2ccc3ccccc3c2)cc(C(=O)Nc2cccc3cc(S(=O)(=O)O)ccc23)c1 [Compound 49, 5-({3-[(2-naphthylsulfonyl)amino]-5-[N-(6-sulfonaphthyl)carbamoyl]phenyl}carbonylamino)naphthalene-2-sulfonic acid] | 109.3
O=C(COc1ccccc1)Nc1cc(C(=O)Nc2cccc3cc(S(=O)(=O)O)ccc23)cc(C(=O)Nc2cccc3cc(S(=O)(=O)O)ccc23)c1 [Compound 38, 5-({3-(2-phenoxyacetylamino)-5-[N-(6-sulfonaphthyl)carbamoyl]phenyl}carbonylamino)naphthalene-2-sulfonic acid] | 84.7
COc1ccc(S(=O)(=O)Nc2cc(C(=O)Nc3cccc4cc(S(=O)(=O)O)ccc34)cc(C(=O)Nc3cccc4cc(S(=O)(=O)O)ccc34)c2)cc1 [Compound 52, 5-[(3-{[(4-methoxyphenyl)sulfonyl]amino}-5-[N-(6-sulfonaphthyl)carbamoyl]phenyl)carbonylamino]naphthalene-2-sulfonic acid] | 111.1
O=C(Nc1cc(C(=O)Nc2cccc3cc(S(=O)(=O)O)ccc23)cc(C(=O)Nc2cccc3cc(S(=O)(=O)O)ccc23)c1)c1ccc([N+](=O)[O-])cc1 [Compound 14, 5-({3-[(4-nitrophenyl)carbonylamino]-5-[N-(6-sulfonaphthyl)carbamoyl]phenyl}carbonylamino)naphthalene-2-sulfonic acid] | 81.7
O=C(Nc1cccc2cc(S(=O)(=O)O)ccc12)c1cc(NC(=O)C2CCCCC2)cc(C(=O)Nc2cccc3cc(S(=O)(=O)O)ccc23)c1 [Compound 33, 5-({3-(cyclohexylcarbonylamino)-5-[N-(6-sulfonaphthyl)carbamoyl]phenyl}carbonylamino)naphthalene-2-sulfonic acid] | 122.5
Cc1cc(C)c(S(=O)(=O)Nc2cc(C(=O)Nc3cccc4cc(S(=O)(=O)O)ccc34)cc(C(=O)Nc3cccc4cc(S(=O)(=O)O)ccc34)c2)c(C)c1 [Compound 55, 5-[(3-{[(2,4,6-trimethylphenyl)sulfonyl]amino}-5-[N-(6-sulfonaphthyl)carbamoyl]phenyl)carbonylamino]naphthalene-2-sulfonic acid] | 121.6
O=C(Nc1cccc2cc(S(=O)(=O)O)ccc12)c1cc(NC(=O)c2c(Cl)ccc(Cl)c2C(=O)O)cc(C(=O)Nc2cccc3cc(S(=O)(=O)O)ccc23)c1 [Compound 20] | 84.9
O=C(Nc1cccc2cc(S(=O)(=O)O)ccc12)c1cc(NS(=O)(=O)c2ccccc2)cc(C(=O)Nc2cccc3cc(S(=O)(=O)O)ccc23)c1 [Compound 48, 5-({3-[(phenylsulfonyl)amino]-5-[N-(6-sulfonaphthyl)carbamoyl]phenyl}carbonylamino)naphthalene-2-sulfonic acid] | 114.2
Cc1ccc(S(=O)(=O)Nc2cc(C(=O)Nc3cccc4cc(S(=O)(=O)O)ccc34)cc(C(=O)Nc3cccc4cc(S(=O)(=O)O)ccc34)c2)cc1 [Compound 53, 5-[(3-{[(4-methylphenyl)sulfonyl]amino}-5-[N-(6-sulfonaphthyl)carbamoyl]phenyl)carbonylamino]naphthalene-2-sulfonic acid] | 105.7
O=C(Cc1cccc(Cl)c1)Nc1cc(C(=O)Nc2cccc3cc(S(=O)(=O)O)ccc23)cc(C(=O)Nc2cccc3cc(S(=O)(=O)O)ccc23)c1 [Compound 44, 5-({3-[2-(3-chlorophenyl)acetylamino]-5-[N-(6-sulfonaphthyl)carbamoyl]phenyl}carbonylamino)naphthalene-2-sulfonic acid] | 124.8
O=C(Nc1cccc2cc(S(=O)(=O)O)ccc12)c1cc(NC(=O)c2ccccc2S(=O)(=O)O)cc(C(=O)Nc2cccc3cc(S(=O)(=O)O)ccc23)c1 [Compound 29, 5-({5-[N-(6-sulfonaphthyl)carbamoyl]-3-[(2-sulfophenyl)carbonylamino]phenyl}carbonylamino)naphthalene-2-sulfonic acid] | 75.6
Cc1ccc(CC(=O)Nc2cc(C(=O)Nc3cccc4cc(S(=O)(=O)O)ccc34)cc(C(=O)Nc3cccc4cc(S(=O)(=O)O)ccc34)c2)cc1 [Compound 43, 5-({3-[2-(4-methylphenyl)acetylamino]-5-[N-(6-sulfonaphthyl)carbamoyl]phenyl}carbonylamino)naphthalene-2-sulfonic acid] | 124.2
O=C(Nc1cc(C(=O)Nc2cccc3cc(S(=O)(=O)O)ccc23)cc(C(=O)Nc2cccc3cc(S(=O)(=O)O)ccc23)c1)c1ccncc1 [Compound 35, 5-({3-(4-pyridylcarbonylamino)-5-[N-(6-sulfonaphthyl)carbamoyl]phenyl}carbonylamino)naphthalene-2-sulfonic acid] | 105.9

Further lines, results first:

Activity (% Control) | SMILES
120.4 | O=C(Nc1cc(C(=O)Nc2cccc3cc(S(=O)(=O)O)ccc23)cc(C(=O)Nc2cccc3cc(S(=O)(=O)O)ccc23)c1)Nc1ccccc1Cl [Compound 59, 5-[(3-{[(2-chlorophenyl)amino]carbonylamino}-5-[N-(6-sulfonaphthyl)carbamoyl]phenyl)carbonylamino]naphthalene-2-sulfonic acid]
97.5 | Cc1ccccc1NC(=O)Nc1cc(C(=O)Nc2cccc3cc(S(=O)(=O)O)ccc23)cc(C(=O)Nc2cccc3cc(S(=O)(=O)O)ccc23)c1 [Compound 60, 5-[(3-{[(2-methylphenyl)amino]carbonylamino}-5-[N-(6-sulfonaphthyl)carbamoyl]phenyl)carbonylamino]naphthalene-2-sulfonic acid]
58.3 | COc1cccc(NC(=O)Nc2cc(C(=O)Nc3cccc4cc(S(=O)(=O)O)ccc34)cc(C(=O)Nc3cccc4cc(S(=O)(=O)O)ccc34)c2)c1 [Compound 64, 5-[(3-{[(3-methoxyphenyl)amino]carbonylamino}-5-[N-(6-sulfonaphthyl)carbamoyl]phenyl)carbonylamino]naphthalene-2-sulfonic acid]
114.6 | Cc1cccc(NC(=O)Nc2cc(C(=O)Nc3cccc4cc(S(=O)(=O)O)ccc34)cc(C(=O)Nc3cccc4cc(S(=O)(=O)O)ccc34)c2)c1 [Compound 61, 5-[(3-{[(3-methylphenyl)amino]carbonylamino}-5-[N-(6-sulfonaphthyl)carbamoyl]phenyl)carbonylamino]naphthalene-2-sulfonic acid]
106.4 | O=C(Nc1ccc(Cl)cc1)Nc1cc(C(=O)Nc2cccc3cc(S(=O)(=O)O)ccc23)cc(C(=O)Nc2cccc3cc(S(=O)(=O)O)ccc23)c1 [Compound 58, 5-[(3-{[(4-chlorophenyl)amino]carbonylamino}-5-[N-(6-sulfonaphthyl)carbamoyl]phenyl)carbonylamino]naphthalene-2-sulfonic acid]
94.4 | COc1ccccc1NC(=O)Nc1cc(C(=O)Nc2cccc3cc(S(=O)(=O)O)ccc23)cc(C(=O)Nc2cccc3cc(S(=O)(=O)O)ccc23)c1 [Compound 63, 5-[(3-{[(2-methoxyphenyl)amino]carbonylamino}-5-[N-(6-sulfonaphthyl)carbamoyl]phenyl)carbonylamino]naphthalene-2-sulfonic acid]
102.8 | Cc1ccc(NC(=O)Nc2cc(C(=O)Nc3cccc4cc(S(=O)(=O)O)ccc34)cc(C(=O)Nc3cccc4cc(S(=O)(=O)O)ccc34)c2)cc1 [Compound 62, 5-[(3-{[(4-methylphenyl)amino]carbonylamino}-5-[N-(6-sulfonaphthyl)carbamoyl]phenyl)carbonylamino]naphthalene-2-sulfonic acid]
